# Reference: ChEMBL document CHEMBL1201862, “PubChem BioAssay data set” (2004)
# Active and inactive are the calls of the source.
# What was measured:
# Protein skinhead-1 = biological target: T1, Protein skinhead-1 (Caenorhabditis elegans, UniProt P34707); type: functional
# T1 sequence (P34707 whole entry): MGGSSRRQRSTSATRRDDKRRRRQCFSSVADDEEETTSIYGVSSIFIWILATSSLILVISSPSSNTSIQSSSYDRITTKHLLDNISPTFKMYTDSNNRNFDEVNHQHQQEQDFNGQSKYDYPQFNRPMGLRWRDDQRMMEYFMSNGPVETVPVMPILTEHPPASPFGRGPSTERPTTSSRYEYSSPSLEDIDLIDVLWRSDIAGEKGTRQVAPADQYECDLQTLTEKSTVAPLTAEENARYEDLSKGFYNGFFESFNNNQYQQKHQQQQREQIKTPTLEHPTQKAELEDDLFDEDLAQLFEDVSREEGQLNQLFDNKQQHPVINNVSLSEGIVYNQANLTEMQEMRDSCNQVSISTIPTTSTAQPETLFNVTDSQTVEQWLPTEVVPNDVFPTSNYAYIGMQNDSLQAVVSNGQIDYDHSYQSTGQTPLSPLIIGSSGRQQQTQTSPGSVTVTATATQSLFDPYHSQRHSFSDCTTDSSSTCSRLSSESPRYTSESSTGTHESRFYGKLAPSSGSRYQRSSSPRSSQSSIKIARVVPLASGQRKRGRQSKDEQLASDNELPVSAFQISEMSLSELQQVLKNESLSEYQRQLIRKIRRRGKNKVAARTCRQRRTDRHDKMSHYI
# [1] = HEp-2 cell cytotoxicity, dose response, cytotoxicity control for RSV inhibitor project, HTS (AID 2410); type: functional; conditions: human respiratory syncytial virus
# [2] = biological target: T2, Ubiquitin-conjugating enzyme E2 N (Homo sapiens, UniProt P61088); type: functional;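 further: Dose-response confirmation in a TR-FRET assay detecting UBC13-driven polyubiquitin chain formation, inhibition measured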
# T2 sequence (P61088 whole entry): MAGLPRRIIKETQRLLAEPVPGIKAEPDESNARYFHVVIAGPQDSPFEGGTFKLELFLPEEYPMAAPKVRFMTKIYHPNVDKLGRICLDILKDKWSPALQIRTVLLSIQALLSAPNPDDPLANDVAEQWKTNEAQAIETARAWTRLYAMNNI
# Vero [3] = assay: cells; type: functional; conditions: Chlorocebus sabaeus
# Streptococcus = assay: Group A Streptococcus viability loss, dose response, counter-screen for streptokinase expression inhibitor project, luminescence, BacTiterGlo (AID 1915); type: functional, organism-based;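 further: potency for reduction of bacterial viability or growth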
# Vero [4] = assay: cells; type: functional, cell-based; conditions: Chlorocebus sabaeus
# [5] = Luminescence Cell-Based Dose Response HTS to Identify Activators of Luciferase Translation or Activity in H4 […] Cells. [Related pubchem assays: 1829 (Project Summary), 1814 (Primary HTS)]; type: functional
# [6] = Luminescence Cell-Based Dose Confirmation HTS to Identify Activators of 5'UTR Stem-Loop Driven Alpha-Synuclein mRNA Translation in H4 Neuroglioblastoma Cells. [Related pubchem assays: 1829 (Project Summary), 1814 (Primary HTS)]; type: functional
# H4 = assay: Luminescence Cell-Based Dose Response HTS to Identify Activators of 5'UTR Stem-Loop Driven Prion Protein mRNA Translation in H4 Neuroglioblastoma Cells. [Related pubchem assays: 1829 (Project Summary), 1814 (Primary HTS)]; type: functional; conditions: Homo sapiens
# [7] = system: Streptococcus sp. 'group A'; assay: growth inhibition of control SK(-) GAS strain, dose response, counter-screen for streptokinase expression inhibitor project, luminescence, kanamycin, BacTiterGlo, confirmation (AID 1900); type: functional, organism-based
# Streptokinase A = biological target: T3, Streptokinase A (Streptococcus pyogenes serotype M1, UniProt P10520); assay: S. pyogenes streptokinase expression inhibitors, potency, dose response, plasminogen activation absorbance, OD405 (AID 1914); type: functional, Streptococcus pyogenes M1 GAS;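 further: secreted streptokinase activity via plasminogen activation per viability signal from cell pellet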
# T3 sequence (P10520 whole entry): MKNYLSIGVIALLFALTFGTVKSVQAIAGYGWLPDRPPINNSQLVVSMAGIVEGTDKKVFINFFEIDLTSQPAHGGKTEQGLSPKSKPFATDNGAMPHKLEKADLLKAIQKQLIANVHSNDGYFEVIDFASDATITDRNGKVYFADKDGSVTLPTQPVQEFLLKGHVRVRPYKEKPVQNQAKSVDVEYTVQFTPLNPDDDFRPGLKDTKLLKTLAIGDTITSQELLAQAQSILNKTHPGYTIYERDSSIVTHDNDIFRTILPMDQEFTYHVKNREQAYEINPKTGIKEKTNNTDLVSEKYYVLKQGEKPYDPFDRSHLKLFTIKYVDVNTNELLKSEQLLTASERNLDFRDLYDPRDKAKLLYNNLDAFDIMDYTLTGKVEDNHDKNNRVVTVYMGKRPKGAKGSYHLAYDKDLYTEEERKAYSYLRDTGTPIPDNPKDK
# Leucine aminopeptidase = biological target: T4, Leucine aminopeptidase (Plasmodium falciparum 3D7, UniProt Q8IL11); assay: P. falciparum M17LAP inhibitors, primary screen, biochemical, fluorogenic H-Leu-NHMec substrate, 1536-well (AID 1619); type: functional
# T4 sequence (Q8IL11 whole entry): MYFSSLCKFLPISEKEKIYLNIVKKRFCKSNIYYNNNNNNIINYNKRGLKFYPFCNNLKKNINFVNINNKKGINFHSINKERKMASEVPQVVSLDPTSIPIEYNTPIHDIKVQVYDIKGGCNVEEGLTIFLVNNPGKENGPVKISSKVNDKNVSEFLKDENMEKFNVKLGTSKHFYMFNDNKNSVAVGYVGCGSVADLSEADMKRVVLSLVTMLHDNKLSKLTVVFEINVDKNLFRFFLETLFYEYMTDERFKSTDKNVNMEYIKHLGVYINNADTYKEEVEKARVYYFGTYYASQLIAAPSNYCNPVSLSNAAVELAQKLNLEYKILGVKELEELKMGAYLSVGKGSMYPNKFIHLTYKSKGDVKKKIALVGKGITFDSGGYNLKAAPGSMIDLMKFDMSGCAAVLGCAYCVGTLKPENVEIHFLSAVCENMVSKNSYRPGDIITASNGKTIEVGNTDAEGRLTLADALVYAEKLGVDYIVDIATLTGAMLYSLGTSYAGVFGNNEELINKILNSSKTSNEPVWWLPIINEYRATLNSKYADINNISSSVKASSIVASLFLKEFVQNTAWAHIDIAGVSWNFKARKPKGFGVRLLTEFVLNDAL
# Large T antigen = Large T antigen (Simian virus 40, UniProt P03070); type: functional, Betapolyomavirus macacae;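 further: Confirmatory-stage PubChem screen for compounds that inhibit SV40 T antigen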
# Chain of Large T antigen (P03070 whole entry): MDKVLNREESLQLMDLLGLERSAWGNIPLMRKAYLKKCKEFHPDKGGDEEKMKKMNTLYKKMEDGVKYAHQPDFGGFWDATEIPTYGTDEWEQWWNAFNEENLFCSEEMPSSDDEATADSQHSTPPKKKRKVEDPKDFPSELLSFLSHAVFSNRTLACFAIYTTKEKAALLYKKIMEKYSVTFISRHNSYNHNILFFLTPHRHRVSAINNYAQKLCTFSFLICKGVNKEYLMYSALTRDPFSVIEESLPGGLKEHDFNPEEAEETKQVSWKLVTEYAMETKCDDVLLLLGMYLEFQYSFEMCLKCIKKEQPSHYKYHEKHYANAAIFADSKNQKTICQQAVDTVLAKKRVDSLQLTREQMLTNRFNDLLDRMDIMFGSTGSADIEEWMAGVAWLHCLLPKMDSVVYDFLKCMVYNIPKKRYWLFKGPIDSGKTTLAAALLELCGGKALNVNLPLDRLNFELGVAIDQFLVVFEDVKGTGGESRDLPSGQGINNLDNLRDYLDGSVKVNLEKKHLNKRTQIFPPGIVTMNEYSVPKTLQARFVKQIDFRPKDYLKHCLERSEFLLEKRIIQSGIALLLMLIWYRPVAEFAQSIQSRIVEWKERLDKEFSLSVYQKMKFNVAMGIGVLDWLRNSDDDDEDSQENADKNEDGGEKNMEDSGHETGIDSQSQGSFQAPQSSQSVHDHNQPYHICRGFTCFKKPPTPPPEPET
# [8] = microbe, parasite or virus in culture; type: functional; conditions: Mycobacterium tuberculosis
# [9] = biological target: Induced myeloid leukemia cell differentiation protein Mcl-1 (Homo sapiens, UniProt Q07820); type: functional
# Chain of Induced myeloid leukemia cell differentiation protein Mcl-1 (Q07820 whole entry): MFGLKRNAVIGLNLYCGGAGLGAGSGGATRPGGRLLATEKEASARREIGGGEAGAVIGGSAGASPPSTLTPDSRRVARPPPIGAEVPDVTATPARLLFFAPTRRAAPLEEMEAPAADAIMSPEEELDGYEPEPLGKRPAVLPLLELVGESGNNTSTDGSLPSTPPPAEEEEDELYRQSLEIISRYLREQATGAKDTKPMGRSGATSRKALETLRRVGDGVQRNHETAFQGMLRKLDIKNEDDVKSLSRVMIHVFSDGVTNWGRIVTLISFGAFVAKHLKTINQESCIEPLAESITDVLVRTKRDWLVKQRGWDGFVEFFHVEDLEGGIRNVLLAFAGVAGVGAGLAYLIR
# [10] = biological target: T5, Corticotropin-releasing factor receptor 2/Corticotropin-releasing factor-binding protein (Homo sapiens, UniProt P24387+Q13324); assay: activators of CRF receptor 2 with binding protein – uHTS hits, confirmation (AID 602473); type: functional; conditions: read-out: EC50_Mean
# T5 sequence (Q13324 whole entry): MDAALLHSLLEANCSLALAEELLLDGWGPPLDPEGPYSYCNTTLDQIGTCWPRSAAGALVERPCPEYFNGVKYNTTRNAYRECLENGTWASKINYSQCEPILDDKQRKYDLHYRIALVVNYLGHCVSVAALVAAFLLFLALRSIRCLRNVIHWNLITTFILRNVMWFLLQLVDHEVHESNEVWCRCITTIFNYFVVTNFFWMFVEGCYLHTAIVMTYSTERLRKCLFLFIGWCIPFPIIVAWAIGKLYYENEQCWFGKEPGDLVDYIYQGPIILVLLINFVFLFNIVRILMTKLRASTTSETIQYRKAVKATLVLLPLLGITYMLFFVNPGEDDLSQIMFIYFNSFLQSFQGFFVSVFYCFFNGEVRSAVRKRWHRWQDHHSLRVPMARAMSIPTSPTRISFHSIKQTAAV
# T5 sequence (P24387 whole entry): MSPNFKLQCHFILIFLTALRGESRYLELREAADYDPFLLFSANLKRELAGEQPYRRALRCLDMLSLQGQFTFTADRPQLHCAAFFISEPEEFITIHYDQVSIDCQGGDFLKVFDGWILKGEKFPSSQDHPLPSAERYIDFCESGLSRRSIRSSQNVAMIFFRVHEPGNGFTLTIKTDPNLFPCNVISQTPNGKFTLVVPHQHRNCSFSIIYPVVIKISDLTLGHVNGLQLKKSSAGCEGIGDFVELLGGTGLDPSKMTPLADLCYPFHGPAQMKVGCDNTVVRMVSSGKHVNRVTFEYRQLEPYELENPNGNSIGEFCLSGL
# [11] = biological target: T5, Corticotropin-releasing factor receptor 2/Corticotropin-releasing factor-binding protein; assay: Dose Response confirmation of uHTS hits for small molecule antagonists of the CRF-binding protein and CRF-R2 receptor complex.; type: functional; conditions: read-out: IC50_Mean
# Genome polyprotein = Genome polyprotein (dengue virus type 2, UniProt P29990); assay: Dengue-2 NS5 methyltransferase inhibitors, primary screen, biochemical, confirmation dose response (AID 588689); type: functional
# Chain of Genome polyprotein (P29990 2492-3391 limits assumed): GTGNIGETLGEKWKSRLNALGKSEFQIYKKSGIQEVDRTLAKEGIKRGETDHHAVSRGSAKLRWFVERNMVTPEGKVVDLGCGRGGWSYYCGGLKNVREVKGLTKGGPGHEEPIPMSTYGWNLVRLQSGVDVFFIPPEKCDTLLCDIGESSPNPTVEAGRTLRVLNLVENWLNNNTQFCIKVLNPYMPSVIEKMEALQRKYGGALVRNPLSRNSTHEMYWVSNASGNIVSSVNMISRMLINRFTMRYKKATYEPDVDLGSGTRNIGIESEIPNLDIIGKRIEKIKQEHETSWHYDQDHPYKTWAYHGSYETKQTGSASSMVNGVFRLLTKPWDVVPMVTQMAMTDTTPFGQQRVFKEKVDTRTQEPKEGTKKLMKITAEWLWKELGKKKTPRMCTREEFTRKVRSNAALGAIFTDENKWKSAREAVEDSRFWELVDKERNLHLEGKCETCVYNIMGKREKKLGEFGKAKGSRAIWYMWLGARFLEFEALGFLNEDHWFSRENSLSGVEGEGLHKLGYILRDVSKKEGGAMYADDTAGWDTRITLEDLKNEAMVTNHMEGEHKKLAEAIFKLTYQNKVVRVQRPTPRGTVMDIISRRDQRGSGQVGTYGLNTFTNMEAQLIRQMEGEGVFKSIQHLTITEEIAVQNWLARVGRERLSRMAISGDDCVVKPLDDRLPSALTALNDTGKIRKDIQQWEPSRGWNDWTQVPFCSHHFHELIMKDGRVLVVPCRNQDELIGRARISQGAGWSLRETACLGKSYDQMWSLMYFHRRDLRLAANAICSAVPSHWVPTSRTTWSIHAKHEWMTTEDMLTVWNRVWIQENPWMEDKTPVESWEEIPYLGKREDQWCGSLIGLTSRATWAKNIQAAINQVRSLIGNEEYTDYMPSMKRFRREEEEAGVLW
compound,measurement,setting,value
N#C/C(=C\c1ccc(Cl)cc1Cl)c1n[nH]c(Cn2cncn2)n1,IC50,Protein skinhead-1,> 100 µM (inactive)
CCN(c1ccccc1)S(=O)(=O)c1cccc(C(=O)Nc2ccc(C)cn2)c1,IC50,Protein skinhead-1,> 100 µM (inactive)
same,CC50,[1],30.3 µM (active)
COc1cc(C(CCN2CCCCC2)c2c(OC)cc(OC)c3c(-c4ccccc4)cc(=O)oc23)cc(OC)c1OC (stereo not given),IC50,[2],> 20 µM (inactive)
same,CC50,Vero [3],> 25 µM (active)
CC1CC(C)CN(Cc2nc(N)nc(Nc3ccc4ccccc4c3)n2)C1 (stereo not given),EC50,Streptococcus,> 150 µM (not active)
same,IC50,Vero [4],> 25 µM (active)
same,EC50,[5],12.9 µM (active)
same,EC50,[6],> 60 µM (not active)
same,EC50,H4,> 120 µM (not active)
same,EC50,[7],> 150 µM (not active)
same,CC50,Vero [3],14.1 µM (active)
same,EC50,Streptokinase A,> 150 µM (not active)
Nc1nc2c(s1)C(=O)CC(c1ccccc1)C2 (stereo not given),IC50,Leucine aminopeptidase,58.8 µM (active)
Nc1ccc(OCCCc2c(N)nc(N)nc2N)cc1,IC50,Large T antigen,7.73 µM (active)
same,IC50,[2],> 20 µM (inactive)
O=C(NCc1ccco1)C1CC(=O)N(c2ccc(O)cc2)C1 (stereo not given),IC50,Large T antigen,19.8 µM (active)
CCn1c(SCC(=O)Nc2nc3ccc(C)cc3s2)nc2c(c1=O)SC(C)C2 (stereo not given),CC50,[8],> 40 µM (active)
CCN(Cc1ccccc1)S(=O)(=O)c1ccc(C(=O)N(CCCN(C)C)c2nc3cc4c(cc3s2)OCO4)cc1,IC50,[2],> 20 µM (inactive)
CC1=C(C#N)C(=O)N(C2CCS(=O)(=O)C2)C(=O)/C1=C\c1ccc(C)o1 (stereo not given),IC50,[9],1.6 µM (active)
same,IC50,Large T antigen,47.9 µM (active)
Cc1ccc(NC(=O)CSc2nnc[nH]2)cc1,IC50,Leucine aminopeptidase,34 µM (active)
O=C(Cc1nnc(O)c2ccccc12)OCc1c(Cl)cccc1Cl,IC50,Vero [4],8 µM (active)
N#CC1=C(N)N(c2ccc(F)cc2)C2=C(C1c1ccc(O)cc1)S(=O)(=O)CC2 (stereo not given),IC50,Protein skinhead-1,> 100 µM (inactive)
O=C(CSc1ccccc1)NN1C(=O)c2ccccc2C1=O,EC50,[10],> 53 µM (inactive)
same,IC50,Leucine aminopeptidase,54.4 µM (active)
same,IC50,[11],> 47.1 µM (inactive)
Nc1nc(O)c2c(n1)N=C1C(=C(O)c3ccccc31)C2c1cccc2ccccc12 (stereo not given),IC50,[9],3.73 µM (active)
COc1ccc(OC)c(C(=O)C2COC(=O)C2)c1 (stereo not given),IC50,Protein skinhead-1,> 100 µM (inactive)
Oc1cc2c(cc1O)[C@H]1c3ccccc3CN[C@@H]1CC2,IC50,Large T antigen,80 µM (active)
COc1ccc(/C=C/C(=O)c2ccc(O)cc2)cc1CN1CCOCC1,IC50,Vero [4],8.49 µM (active)
same,CC50,Vero [3],> 25 µM (active)
Nc1ccc2c(c1)sc1ccccc12,IC50,Protein skinhead-1,29 µM (active)
O=C1Cc2ccccc2Sc2ccc(O)cc21,EC50,[10],> 53 µM (inactive)
same,IC50,[2],> 20 µM (inactive)
c1ccc2c(c1)CCN(c1nc(CN3CCOCC3)nc3sc4c(c13)CCCC4)C2,CC50,[8],> 40 µM (active)
CN(C)C(S)=Nc1ccc(N2CCOCC2)cc1,IC50,Large T antigen,11 µM (active)
COc1cc(C=C(C(C)=O)C(C)=O)ccc1O,IC50,Large T antigen,8.18 µM (active)
O=C(/C=C\c1ccco1)c1ccc(NC(=O)c2ccco2)cc1,IC50,[9],2.78 µM (active)
CC(=O)/C(C#N)=C1\NC(=O)C(Cc2ccc(C)c(C)c2)S1 (stereo not given),IC50,Vero [4],5.04 µM (active)
same,CC50,Vero [3],> 25 µM (active)
CC1=NN(c2ccccc2)C(=O)/C1=C/c1ccc(-c2ccc(C)c(C(=O)O)c2)o1,IC50,Large T antigen,35 µM (active)
Cc1c(Nc2nc3ccccc3nc2NS(=O)(=O)c2ccccc2)c(=O)n(-c2ccccc2)n1C,IC50,Leucine aminopeptidase,68.1 µM (active)
CCCOC(=O)c1c(NC(=O)C2C3C=CC(C3)C2C(=O)O)sc2c1CCC(C)C2 (stereo not given),IC50,Genome polyprotein,50.3 µM (active)
CC(=O)c1ccc(OCCCC(=O)n2nnc3ccccc32)cc1,IC50,Leucine aminopeptidase,61.9 µM (active)
CC(=O)NC(c1cccs1)c1cc(Cl)c2ccccc2c1O (stereo not given),IC50,[2],> 20 µM (inactive)
O=C(c1cnn(C(=O)c2ccccc2)c1)c1ccccc1O,IC50,Leucine aminopeptidase,72.6 µM (active)
COc1ccc(OC)c(NC(=O)[C@H]2CC=CC[C@H]2C(=O)O)c1,IC50,Leucine aminopeptidase,18.5 µM (active)
O=C(CSc1nnnn1C1CCCCC1)Nc1nc2c(s1)CCCC2,CC50,[8],> 40 µM (active)
Cc1c(/C=N/NC(=O)c2cccs2)c2ccccc2n1Cc1ccccc1Cl,IC50,Vero [4],> 25 µM (active)
same,CC50,Vero [3],> 25 µM (active)
C/C(=N\NC(=O)CSCc1ccc([N+](=O)[O-])cc1)c1cccc(Br)c1,IC50,[2],> 20 µM (inactive)
CCc1cc(/C(Cc2ccccn2)=N\Nc2ccccc2)c(O)cc1O,CC50,[8],> 40 µM (active)
CCc1ccc(/N=C\C23c4ccccc4C(c4ccccc42)C2C(=O)N(c4ccc(OC)cc4)C(=O)C23)cc1 (stereo not given),CC50,[8],> 40 µM (active)
O=C(Nc1ccc(Cl)c(Cl)c1)c1ccccc1,IC50,Protein skinhead-1,> 100 µM (inactive)
